Experimental data: US20050090522A1 (priority 2001, published 2005)
Where two headings read alike, the source gives them in different places.

Tests used:
[1] = Rat IV and PO pharmacokinetic studies; conditions: for CL, iv / clearance: iv dosing at 1 mg/kg; for clearance / AUC(0-t): male, Sprague-Dawley, in vivo; for clearance: iv, 1 mg/kg, CL; for AUC(0-t): po, 5 mg/kg
Experimental: Rat Pharmacokinetic Studies: For the IV and PO pharmacokinetic studies of compounds in rats, the compound was dissolved in PEG-400/ethanol (90/10) as a solution. Rat. Male Sprague-Dawley rats (300-350 g, Hilltop Lab Animals, Inc., Scottdale, Pa.) with cannulas implanted in the jugular vein were used. The rats were fasted overnight in the PO pharmacokinetic studies. Blood samples of 0.3 ml were collected from the jugular vein in EDTA-containing microtainer tubes (Becton Dickinson, Franklin Lakes, N. J.), and centrifuged to separate plasma. In the IV study, the test compound was delivered at 1 mg/kg as a bolus over 0.5 min (n=3). […] Quantitation of Compounds in Plasma. […] The resulting supernates were separated from the precipitated proteins by centrifugation for 10 minutes and transferred to autosampler vials. Samples were either prepared manually, or with the use of the Tomtec automated liquid handler. An aliquot of 5 μL was injected for analysis. The HPLC system consisted of two Shimadzu LC10AD pumps (Columbia, Md.), a Shimadzu SIL-HTC autosampler (Columbia, Md.), and a Hewlett Packard Series 1100 column compartment (Palo Alto, Calif.). The column was a YMC Pro C18 (2.0×50 mm, 3 μm particles, Waters Co., Milford, Mass.), maintained at 60° C. and a flow rate of 0.3 ml/min. The mobile phase consisted of 10 mM ammonium formate and 0.1% formic acid in water (A) and 100% 10 mM ammonium formate and 0.1% formic acid in methanol (B). […] The mobile phase was then returned to initial conditions and the column re-equilibrated for 1 minute. Total analysis time was 4 minutes. The HPLC was interfaced to a Micromass Quattro LC. Ultra high purity nitrogen was used as the nebulizing and desolvation gas at flow rates of 100 L/hr for nebulization and 1100 L/hr for desolvation. The desolvation temperature was 300° C. and the source temperature was 150° C. Data acquisition utilized selected reaction monitoring (SRM). Ions representing the (M+H)^+ species for the compound and the internal standard were selected in MS 1 and collisionally dissociated with argon at a pressure of 2×10^−3 torr to form specific product ions which were subsequently monitored by MS2.
For accuracy, the determined measure of viral inhibition is an EC50; but the minimum plasma concentrations which should be maintained in a patient is generally believed to be at least four or five fold higher. […] Lower is better. • 4) Estimating potential exposure in man by measuring parameters such as AUC and rate of clearance by oral and iv dosing in rats. High exposure and low clearance was desired.
The rat model is an initial model used to assess potential for exposure in man.

HIV-1 = HIV-1 single-round infectious luciferase reporter virus (pseudotype) assay in HeLa CD4 CCR5 cells; assay type: cell-based
How it was run: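 HeLa CD4 CCR5 cells (5×10^4/well, DMEM + 10% FBS) were treated with compound (final <10 μM) and infected with single-round luciferase reporter virus made in 293 cells, at MOI ~0.01. Luciferase was read 72 h post infection. EC50 came from 10-concentration percent-inhibition curves fitted to a four-parameter logistic model.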

HeLa cells = test: Cytotoxicity assay in HeLa cells (MTT dye reduction, CC50)
How it was run: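 HeLa cells expressing CD4 and CCR5, grown in DMEM with 10% FBS, were used for cytotoxicity testing by MTT dye reduction; the text gives no further cytotoxicity conditions. The parallel antiviral assay exposed the same cells to compound at final <10 μM for 72 h.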

[2] = Metabolic stability in pooled human liver microsomes (HLM); conditions: 3 μM drug
How it was run: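 Pooled human liver microsomes (0.9 mg/ml final) in 0.1 M potassium phosphate pH 7.4 with 0.033 mM MgCl2 and an NADPH-regenerating system. Compound pre-incubated 2 min, reaction started with cofactors, run 10 min at 37° C, quenched in acetonitrile and analysed by LC/MS.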

[3] = Human immunodeficiency virus 1, HeLa-CD4/CCR5, read-out: EC50 Group from TABLE 1, HeLa CD4 CCR5 cells, single-round infectious luciferase reporter virus
[4] = Human immunodeficiency virus 1, HeLa-CD4/CCR5, read-out: EC50 category, HIV-1 single-round reporter virus assay, category 1/2/3 per Table A1 key
[5] = cytotoxicity, Yes = CC50 above 100 uM, No = not
[6] = pooled human liver microsomes, Low/Intermediate/High
[7] = AUC 24 h, oral dosing at 5 mg/kg
[8] = Human immunodeficiency virus 1, HeLa-CD4/CCR5, read-out: EC50 Group from Table 1, Table 4, HeLa CD4 CCR5 cells, single-round luciferase reporter virus
[9] = Human immunodeficiency virus 1, HeLa-CD4/CCR5, read-out: EC50 category, initial pseudotype assay, key in Table A1
[10] = HeLa cells, six days with drug, MTT
[11] = 0.9 mg/ml microsomes, 37° C., 10 min

| Compound | EC50 (HIV-1; [3]) | EC50 (HIV-1; [4]) | CC50 > 100 uM (HeLa cells; [5]) | HLM predicted human clearance class [2, 6] | clearance [1] | AUC(0-t) [1, 7] | further results |
| --- | --- | --- | --- | --- | --- | --- | --- |
| Cc1ccc(-c2nccc3c(C(=O)C(=O)N4CCN(C(=O)c5ccccc5)C[C@H]4C)c[nH]c23)cc1N [Example 3, 1-benzoyl-3-®-methyl-4-[(7-(3-amino-4-methylphenyl)-6-azaindol-3-yl)-oxoacetyl] piperazine] | – | – | – | – | – | – | CL, iv [1]: 1.3 ± 4.0 mL/min/kg; AUC 24 h ([1]; oral dosing at 5 mg/kg): 6300 ± 2700 ng·h/mL |
| COc1ncc(-c2nccc3c(C(=O)C(=O)N4CCN(C(=O)c5ccccc5)C[C@H]4C)c[nH]c23)c(OC)n1 [Example 12, 1-benzoyl-3-®-methyl-4-[(7-(2,4-dimethoxy-pyrimidin-5-yl)-6-azaindol-3-yl)-oxoacetyl]piperazine] | – | – | – | – | – | – | CL, iv [1]: 11.9 ± 1.8 mL/min/kg; AUC 24 h ([1]; oral dosing at 5 mg/kg): 4700 ± 1100 ng·h/mL |
| COc1cnc(-c2cnccn2)c2[nH]cc(C(=O)C(=O)N3CCN(C(=O)c4ccccn4)CC3)c12 [Example 102, 1-picolinoyl-4-[(4-methoxy-7-(pyrazin-2-yl)-6-azaindol-3-yl)-oxoacetyl]piperazine] | < 1 µM | 0.0002 to 1 µM | Yes | Low (0-0.100) | 12 ± 5.5 mL/min/kg | 6900 ± 1300 ng·h/mL | – |
| O=C(C(=O)N1CCN(C(=O)c2ccccc2)CC1)c1c[nH]c2c(-c3cnco3)ncc(F)c12 [Example 145] | < 1 µM | < 0.0002 µM | – | – | – | 12000 ± 3800 ng·h/mL | CL, iv [1]: 1.4 ± 0.29 mL/min/kg |
| COc1cnc(-n2cncn2)c2[nH]cc(C(=O)C(=O)N3CCN(C(=O)c4ccccc4)CC3)c12 [Example 187, 1-benzoyl-4-[(4-methoxy-7-(1,2,4-triazol-1-yl)-6-azaindol-3-yl)-oxoacetyl]piperazine] | < 1 µM | < 0.0002 µM | Yes | Low (0-0.100) | 2.4 ± 0.5 mL/min/kg | 22400 ± 7200 ng·h/mL | – |
| COc1cnc(-n2ccnn2)c2[nH]cc(C(=O)C(=O)N3CCN(C(=O)c4ccccc4)CC3)c12 [Example 188, 1-benzoyl-4-[(4-methoxy-7-(1,2,3-triazol-1-yl)-6-azaindol-3-yl)-oxoacetyl]piperazine] | < 1 µM | < 0.0002 µM | Yes | Low (0-0.100) | 2.4 ± 0.08 mL/min/kg | 20000 ± 4600 ng·h/mL | – |
| COc1cnc(-n2ccc(C)n2)c2[nH]cc(C(=O)C(=O)N3CCN(C(=O)c4ccccc4)CC3)c12 [Example 190, 1-benzoyl-4-[(4-methoxy-7-(3-methyl-pyrazol-1-yl)-6-azaindol-3-yl)-oxoacetyl]piperazine] | < 1 µM | < 0.0002 µM | Yes | Low (0-0.100) | 3.7 ± 1 mL/min/kg | 7400 ± 3400 ng·h/mL | – |
| COc1cnc(-n2ccnc2)c2[nH]cc(C(=O)C(=O)N3CCN(C(=O)c4ccccc4)CC3)c12 [Example 193, 1-benzoyl-4-[(4-methoxy-7-(1-imidazolyl)-6-azaindol-3-yl)-oxoacetyl]piperazine] | < 1 µM | < 0.0002 µM | No | Low (0-0.100) | 4.5 ± 0.4 mL/min/kg | 14000 ± 8000 ng·h/mL | – |
| O=C(C(=O)N1CCN(C(=O)c2ccccc2)CC1)c1c[nH]c2c(-c3ncco3)ccnc12 [Example 204] | – | 0.0002 to 1 µM | Yes | Low (0-0.100) | 10 ± 1.3 mL/min/kg | 12000 ± 1400 ng·h/mL | EC50 (HIV-1; [8]): < 1 µM |
| O=C(C(=O)N1CCN(C(=O)c2ccccc2)CC1)c1c[nH]c2c(-n3nccn3)ccnc12 [Example 205, 1-(4-benzoyl-piperazin-1-yl)-2-(7-[1,2,3]triazol-2-yl-1H-pyrrolo[3,2-b]pyridin-3-yl)-ethane-1,2-dione] | – | 0.0002 to 1 µM | Yes | Low (0-0.100) | 5.4 ± 0.4 mL/min/kg | 9600 ± 1200 ng·h/mL | EC50 (HIV-1; [8]): < 1 µM |
| O=C(C(=O)N1CCN(C(=O)c2ccccc2)CC1)c1c[nH]c2c(-n3ccnn3)ncc(F)c12 [Example 216] | < 1 µM | < 0.0002 µM | – | Low (0-0.100) | – | 32000 ± 12000 ng·h/mL | – |
| Cc1ncn(-c2ncc(F)c3c(C(=O)C(=O)N4CCN(C(=O)c5ccccc5)CC4)c[nH]c23)n1 [Example 306] | < 1 µM | < 0.0002 µM | – | Low (0-0.100) | 0.39 ± 0.07 mL/min/kg | 160000 ± 11000 ng·h/mL | – |
| COc1cnc(-n2cnc(C)n2)c2[nH]cc(C(=O)C(=O)N3CCN(C(=O)c4ccccc4)CC3)c12 [Example 316] | < 1 µM | < 0.0002 µM | – | – | – | – | AUC(0-t) [1]: 52000 ± 12000 ng·h/mL |
| COc1cnc(-n2ncc(C)n2)c2[nH]cc(C(=O)C(=O)N3CCN(C(=O)c4ccccc4)CC3)c12 [Example 327] | < 1 µM | – | – | – | – | – | EC50 (HIV-1; [9]): 0.0002 to 1 µM; CC50 > 100 uM (HeLa cells; [10]): Yes; HLM predicted human clearance class [2, 11]: Low (0-0.100) |
| COc1cnc(-n2ncc(C)n2)c2[nH]cc(C(=O)C(=O)N3CCN(C(=O)c4ccccc4)[C@H](C)C3)c12 [Example 328] | – | – | – | – | – | – | EC50 (HIV-1; Human immunodeficiency virus 1, HeLa-CD4/CCR5, read-out: EC50 Group from Table 1, Table 2-1, HeLa CD4 CCR5 cells, single-round luciferase reporter virus): < 1 µM; EC50 (HIV-1; [9]): < 0.0002 µM; CC50 > 100 uM (HeLa cells; [10]): Yes; HLM predicted human clearance class [2, 11]: Low (0-0.100) |
| COc1cnc(-c2nc(C)n[nH]2)c2[nH]cc(C(=O)C(=O)N3CCN(C(=O)c4ccccc4)CC3)c12 [Example 342] | < 1 µM | < 0.0002 µM | Yes | Low (0-0.100) | – | – | – |
| Cc1ccn(-c2ccnc3c(C(=O)C(=O)N4CCN(C(=O)c5ccccc5)[C@H](C)C4)c[nH]c23)n1 [Example 356] | – | 0.0002 to 1 µM | Yes | Low (0-0.100) | – | – | EC50 (HIV-1; Human immunodeficiency virus 1, HeLa-CD4/CCR5, 72 h, read-out: EC50 Group from Table 1, HeLa CD4 CCR5 cells, luciferase reporter virus, harvested 72 h after infection): < 1 µM |
